Laboratory results as given in patent publication US20070078111A1, “LPA2 receptor agonist inhibitors of CFTR” (priority 2005, published 2007).

What was measured:
LPA2 receptor = LPA2 receptor (Homo sapiens, UniProt Q9HBW0); assay: LPA2 receptor agonist activity (EC50, Emax); type: cell-based; conditions: for LPA2 (Emax): value in parentheses
[1] = test system: CTX-induced Cl- secretion; type: in vivo, C57BL/6 mice; conditions: 6 hours
CFTR = assay: Iodide efflux measurements in Calu-3 cells; type: cell-based, human; conditions: for CFTR activity, peak iodide efflux in response to adenosine: adenosine as CFTR agonist, FIG. 2C
CFTR Cl- channel [2] = assay: Short-circuit current (Isc) in polarized Calu-3 monolayers; type: cell-based, human
Description: (§1) Calu-3 and HT29-CL19A polarized cell monolayers were grown to confluency on Costar Transwell permeable supports (filter area is 0.33 cm^2). Filters were mounted in an Ussing chamber, and short-circuit currents (Isc) mediated through CFTR Cl^− channel were carried out as described previously (31). Epithelia were bathed in Ringer's solution (mM) (serosal/basolateral: 140 NaCl^−, 5 KCl, 0.36 K2HPO4, 0.44 KH2PO4, 1.3 CaCl2, 0.5 MgCk2, 4.2 NaHCO3, 10 Hepes, 10 glucose, pH 7.2, [Cl^−]=149), and low Cl-Ringer's solution (mM) (luminal/apical: 133.3 Na-gluconate, 5 K-gluconate, 2.5 NaCl, 0.36 K2HPO4, 0.44 KH2PO4, 5.7 CaCl2, 0.5 MgCl2, 4.2 NaHCO3, 10 Hepes, 10 mannitol, pH 7.2, [Cl^−]=14.8) at 37° C., gassed with 95% O2 and 5%) […] CO2. LPA (20:4) was added into both the luminal (apical) side and serosal (basolateral) side of the cell monolayers for 30 min before adenosine (ADO) was added into the luminal/apical side. […]

NHERF2 = target: T1, NHERF2 (Homo sapiens, UniProt Q15599); assay: NHERF2 binding to LPA2 in the presence of LPA2-specific peptide; conditions: FIG. 4H
T1 construct: GST
T1 sequence (Q15599 whole entry): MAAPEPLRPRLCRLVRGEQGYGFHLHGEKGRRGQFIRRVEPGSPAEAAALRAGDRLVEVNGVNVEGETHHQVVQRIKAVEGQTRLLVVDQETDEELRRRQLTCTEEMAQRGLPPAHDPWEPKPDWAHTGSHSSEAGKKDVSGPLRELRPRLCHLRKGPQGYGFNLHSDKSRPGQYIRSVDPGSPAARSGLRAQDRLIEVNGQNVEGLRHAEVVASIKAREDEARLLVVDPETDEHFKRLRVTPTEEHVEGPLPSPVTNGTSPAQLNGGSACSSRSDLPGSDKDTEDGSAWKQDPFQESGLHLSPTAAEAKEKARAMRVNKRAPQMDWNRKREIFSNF
Description: This assay (34) was performed using maltose binding protein (MBP)-CFTR-C tail fusion protein (1 μM) immobilized on amylose beads (20 μl) and incubated with GST-NHERF2. This step, which is called pairwise binding, was done in 200 μl of lysis buffer (PBS-0.2% Triton-X 100+protease inhibitors) and mixed at 22° C. for 2 h. The complex was washed once with the same buffer and allowed to bind Flag-tagged LPA2 from lysates of BHK cells expressing the receptor. The binding was done at 4° C. for 3 h with constant mixing. The complex was washed with lysis buffer, eluted with sample buffer, and analyzed by immunoblotting using anti-Flag monoclonal antibody.

CFTR Cl- channel [3] = assay: Short-circuit current (Isc) in isolated mouse intestine; conditions: isolated mouse intestine pretreated with LPA (20:4); dose-dependent; FIG. 2G, 2H
Description: as §1

[4] = test system: CTX-induced intestinal fluid secretion; type: in vivo, CD1 mice
CFTR Cl- channel [5] = assay: Short-circuit current (Isc) in polarized HT29-CL19A monolayers; type: cell-based, human; conditions: HT29 cells; LPA (20:4) pretreatment 30 min; FIG. 2E
Description: as §1

Chain of LPA2 receptor (Q9HBW0 whole entry): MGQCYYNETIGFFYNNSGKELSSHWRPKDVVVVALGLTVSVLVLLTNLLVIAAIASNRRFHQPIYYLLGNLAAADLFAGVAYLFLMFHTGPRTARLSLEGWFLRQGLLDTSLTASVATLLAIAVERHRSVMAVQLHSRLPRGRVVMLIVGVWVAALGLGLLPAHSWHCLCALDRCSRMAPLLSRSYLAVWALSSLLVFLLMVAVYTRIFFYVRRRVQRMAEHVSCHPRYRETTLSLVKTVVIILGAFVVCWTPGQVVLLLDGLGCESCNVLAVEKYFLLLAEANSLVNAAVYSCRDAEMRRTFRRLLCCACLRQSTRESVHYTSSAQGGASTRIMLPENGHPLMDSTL

## CCCCCCCC=CCCCCCCCC[C@@H]1OC[C@H](COP(=O)([O-])O)O1.[K+] [(2R,4R) Mono potassium phosphoric acid O-(2-heptadec-9-enyl-(1,3)-dioxolan-4-ylmethyl) ester]
LPA2 receptor; Table 2
  EC50: 1710 nM
  LPA2 (Emax): 42

## CCCCCCCC=CCCCCCCCC[C@@H]1OC[C@H](COP([O-])(O)=S)O1.[K+] [(2R,4R) Mono potassium thiophosphoric acid O-(2-heptadec-9-enyl-(1,3)-dioxolan-4-ylmethyl) ester]
LPA2 receptor; Table 2
  EC50: 1090 nM
  LPA2 (Emax): 85

## CCCCCCCC=CCCCCCCCC[C@@H]1OC[C@@H](COP([O-])(O)=S)O1.[K+] [(2R,4S) Mono potassium thiophosphoric acid O-(2-heptadec-9-enyl-(1,3)-dioxolan-4-ylmethyl) ester]
LPA2 receptor; Table 2
  EC50: 1540 nM
  LPA2 (Emax): 72

## CCCCCCCC=CCCCCCCCC[C@H]1OC[C@H](COP([O-])(O)=S)O1.[K+] [(2S,4R) Mono potassium thiophosphoric acid O-(2-heptadec-9-enyl-(1,3)-dioxolan-4-ylmethyl) ester]
LPA2 receptor; Table 2
  EC50: 1300 nM
  LPA2 (Emax): 77

## CCCCCCCC=CCCCCCCCC[C@H]1OC[C@@H](COP([O-])(O)=S)O1.[K+] [(2S,4S) Mono potassium thiophosphoric acid O-(2-heptadec-9-enyl-(1,3)-dioxolan-4-ylmethyl) ester]
LPA2 receptor; Table 2
  EC50: 1320 nM
  LPA2 (Emax): 87

## CCCCCCCC(=O)OC[C@H](COP(O)(O)=S)OC(=O)CCCCCCC [(R)-Octanoic acid 1-octanoyloxymethyl-2-thiophosphonooxy-ethyl ester]
LPA2 receptor; Table 1
  LPA2 (Emax): 58

## CCCCCCCCOC[C@H](COP(O)(O)=S)OCCCCCCCC [(R)-Thiophosphoric acid O-(2,3-bis-octyloxy-propyl) ester]
LPA2 receptor; Table 1
  EC50: 5720 nM
  LPA2 (Emax): 27

## CCCCCCCC(=O)OC[C@@H](COP(O)(O)=S)OC(=O)CCCCCCC [(S)-Octanoic acid 1-octanoyloxymethyl-2-thiophosphonooxy-ethyl ester]
LPA2 receptor; Table 1
  LPA2 (Emax): 17

## CCCCCCCC/C=C\CCCCCCCCOP(O)(O)=S [FAP 18:1d9, fatty alcohol thiophosphate 18:1d9]
[1]
  intestinal fluid accumulation: significantly reduced
  ratio of intestinal weight before to after luminal fluid removal: statistically significant reduction

## CCCCCCCC/C=C\CCCCCCCC(=O)OC[C@@H](O)COP(=O)(O)O [LPA 18:1]
CFTR; Calu-3 cells, […], FIG. 2D
  rank order of inhibition of peak iodide efflux in response to adenosine: LPA 20:4>LPA 18:2>LPA 18:1

## CC=CCC=CCC=CCCCCCCCCC1OCC(COP(=O)(O)O)O1.[K] (stereo not drawn) [Mono potassium phosphoric acid O-(2-heptadec-9,12,15-trienyl-(1,3)-dioxolan-4-ylmethyl) ester]
LPA2 receptor; Table 2
  EC50: 1710 nM
  LPA2 (Emax): 51

## CCCCCCCC=CCCCCCCCCC1OCC(COP(O)(O)=S)O1.[K] (stereo not drawn) [Mono potassium thiophosphoric acid O-(2-heptadec-9-enyl-(1,3)-dioxolan-4-ylmethyl) ester]
LPA2 receptor; Table 2
  EC50: 1170 nM
  LPA2 (Emax): 87

## C=CCCCCCCCCOP(=O)(O)O [Phosphoric acid monodec-9-enyl ester]
LPA2 receptor; Table 1
  EC50: 3800 nM
  LPA2 (Emax): 100

## CCCCCCCCCCOP(=O)(O)O [Phosphoric acid monodecyl]
LPA2 receptor; Table 1
  EC50: 1800 nM
  LPA2 (Emax): 82

## CC/C=C\CCCCCCCCOP(=O)(O)O [Phosphoric acid monododec-9-enyl ester]
LPA2 receptor; Table 1
  EC50: 717 nM
  LPA2 (Emax): 78

## CCCCCCCCCCCCOP(=O)(O)O [Phosphoric acid monododecyl ester]
LPA2 receptor; Table 1
  EC50: 3100 nM
  LPA2 (Emax): 50

## CCCC/C=C\CCCCCCCCOP(=O)(O)O [Phosphoric acid monotetradec-9-enyl ester]
LPA2 receptor; Table 1
  EC50: 397 nM
  LPA2 (Emax): 58

## CC/C=C\CCCCCCCCCCOP(=O)(O)O [Phosphoric acid monotetradec-11-enyl ester]
LPA2 receptor; Table 1
  EC50: 4100 nM
  LPA2 (Emax): 75

## CCCCCCCCCCOP(O)(O)=S [Thiophosphoric acid O- decyl ester]
LPA2 receptor; Table 1
  EC50: 4570 nM
  LPA2 (Emax): 100

## CCCCCCCCCCCCOP(O)(O)=S [Thiophosphoric acid O- dodecyl ester]
LPA2 receptor
  binding to the LPA2 receptor and thereby inhibiting CFTR activation: particularly effective
LPA2 receptor; Table 1
  EC50: 1000 nM
  LPA2 (Emax): 100

## CCCCCCCCCCCCCCOP(O)(O)=S [Thiophosphoric acid O- tetradecyl ester]
LPA2 receptor
  binding to the LPA2 receptor and thereby inhibiting CFTR activation: particularly effective
LPA2 receptor; Table 1
  EC50: 2500 nM
  LPA2 (Emax): 100

## CCCC/C=C\CCCCCCCCOP(O)(O)=S [Thiophosphoric acid O-tetradec-9-enyl ester]
LPA2 receptor
  binding to the LPA2 receptor and thereby inhibiting CFTR activation: particularly effective
LPA2 receptor; Table 1
  EC50: 480 nM
  LPA2 (Emax): 150

## CC/C=C\CCCCCCCCOP(O)(O)=S [drawing 10, Thiophosphoric acid O-dodec-9-enyl ester]
LPA2 receptor
  binding to the LPA2 receptor and thereby inhibiting CFTR activation: particularly effective
LPA2 receptor; Table 1
  EC50: 677 nM
  LPA2 (Emax): 100

## CCCCCCCC/C=C\CCCCCCCCOP(O)(O)=S [drawing 12, Thiophosphoric acid O-octadec-9-enyl ester]
LPA2 receptor
  binding to the LPA2 receptor and thereby inhibiting CFTR activation: particularly effective
LPA2 receptor; Table 1
  EC50: 244 nM
  LPA2 (Emax): 175

## LPA2-specific peptide: peptide containing the PDZ motif of LPA2 (last 11 amino acids; a.a. 341 to 351, ENGHPLMDSTL)
CFTR Cl- channel [2]; peptide delivered with Chariot, 25 μM LPA (20:4) 30 min, adenosine 0-20 μM, FIG. 4F
  reversal of LPA-elicited inhibition on CFTR-dependent Cl- currents (Isc): significantly reversed
NHERF2
  competition with LPA2 for binding to NHERF2: could compete with LPA2 for binding to NHERF2 in a dose-dependent manner

## lysophosphatidic acid [LPA]
[1]
  ratio of intestinal weight before to after luminal fluid removal: statistically significant reduction
CFTR Cl- channel [2]; Calu-3 cells, LPA pretreatment 30 min, FIG. 2F
  CFTR-dependent Cl- currents (Isc) in response to adenosine: significantly inhibited
CFTR Cl- channel [3]
  Isc in response to cpt-cAMP stimulation: inhibited
[4]; 6 h
  CTX-elicited CFTR-dependent intestinal fluid secretion (ileal loop weight): significantly reducing fluid accumulation to the level of PBS control loops
[4]; mouse, in vivo
  fluid accumulation in toxin-treated intestinal loops: efficiently reduced the fluid accumulation
CFTR; Calu-3 cells, LPA alone, no cpt-cAMP
  effect of LPA alone on CFTR channel function (iodide efflux): had no effect
CFTR; Calu-3 cells
  CFTR activity, peak iodide efflux in response to adenosine: dose-dependent inhibition
CFTR; LPA pretreatment, FIG. 2A: LPA 18:1 (20 μM), cpt-cAMP 200 μM
  response of Calu-3 cells to cpt-cAMP stimulation (iodide efflux): reduced the response
CFTR Cl- channel [5]
  CFTR-dependent Cl- currents (Isc) in response to adenosine: significantly inhibited

## pertussis toxin [PTX]
CFTR; Calu-3 cells pretreated with PTX 100 or 200 ng/ml for 24 h
  reversal of LPA-dependent inhibition of CFTR function (iodide efflux): reversed LPA-dependent inhibition of CFTR function in a dose-dependent fashion

## phosphatidic acid [PA]
CFTR; Calu-3 cells
  CFTR activity, peak iodide efflux in response to adenosine: did not show any significant effect
